Experiments:
[1] = Surface Plasmon Resonance binding to immobilized 3-Lipid II (BIAcore); conditions: SPR, 10 μM, room temperature, 40 RUs 3-Lipid II
Protocol: Short-chain water-soluble Lipid II containing a lipid tail of three isoprene units was generated and purified essentially as described (Breukink, E., van Heusden, H. E., Vollmerhaus, P. J., Swiezewska, E., Brunner, L., Walker, S., Heck, A. J., and de Kruijff, B. (2003) J Biol Chem 278, 19898-19903). Typically, M. flavus vesicles (120 μmol lipid-Pi) were incubated together with 500 μmol UDP-GlcNAc, 500 μmol UDP-MurNAC-pentapeptide and 400 μmol farnesyl phosphate (3-P) in 100 mM Tris-HCl pH 8.0, 5 mM MgCl2. The incubation lasted two hours at room temperature for 3-P. The synthesis of 3-Lipid II was followed using RP-8 reversed phase TLC (Merck) developed in 75% methanol. For purification, the membranes were removed by centrifugation at 40,000×g and the supernatant was collected and loaded on a C18 HPLC column and eluted with a linear gradient from 50 mM ammonium bicarbonate to 100% methanol in 30 minutes. Farnesyl-Lipid II (3-Lipid II) eluted at approximately 60% methanol. Its identity was confirmed by mass spectroscopy.
Surface Plasmon Resonance binding experiments were carried out on a BIAcore T100 system (BIAcore Inc., Piscataway, N.Y.) at 25° C. The assay buffer was 10 mM HEPES, 150 mM NaCl, 0.05% surfactant P20, pH 7.4 (±3 mM EDTA) supplemented with 10% DMSO. […] For initial determination of binding, defensin mimetics were introduced into the flow-cells (30 μl/min) in the running buffer at 10 μM. Resonance signals were corrected for nonspecific binding by subtracting the background of the control flow-cell. After each analysis, the sensor chip surfaces were regenerated with 50 mM NaOH for 30 s at a flow rate 100 μl/min, and equilibrated with the buffer prior to next injection. For binding kinetics studies, binding isotherms were analyzed with manufacturer-supplied software for BIAcore T100.

S. aureus ATCC 29213 = test: Murine peritoneal sepsis model; type: in vivo, C57BL/6J mice; conditions: mouse, in vivo
Protocol: Adult C57BL/6J mice (˜18 grams, 8-10 weeks old) were used for all experiments. Mice were obtained from the Jackson Laboratory (Bar Harbour, Me., USA) and housed in the IHV SPC animal core facility. Mice were fed standard chow (Harlan Laboratories) and water ad libitum. To assess the protective potency of defensin mimetic BAS00127538, groups of 5 mice were inoculated intraperitoneally ˜10^7 CFU/mL of S. aureus ATCC 29213 in 500 μL saline solution/25% DMSO plus 4.5% (w/v) porcine gastric mucin (Sigma Chemical Co., St Louis, Mo.). Infected animals (n=5) were subsequently treated by intra-peritoneal injection 1 and 4 hours post-infection with 2.5 mg/kg of compound in 100 μL sterile saline solution plus 25% DMSO (V/V), vancomycin/lysostaphin (5 mg/kg, saline solution/25% DMSO) or vehicle (saline solution/25% DMSO) as positive and negative controls respectively. Animals were closely observed during a period of 24 hours and mice that show signs of severe sepsis were humanely euthanized. Blood samples were collected by retro-orbital puncture at the indicated intervals post-infection using lithium-heparin polystyrene tubes to prevent coagulation. Spleens were harvested aseptically, weighed and homogenized in 500 μl of sterile saline solution using an IKA T10 basic disperser (IKA, Wilmington N.C.). Whole blood samples and spleen homogenates were serially diluted and plated onto LB agar plates. Bacterial counts were determined following 24 h incubation at 37° C. and expressed as CFU per milliliter for blood and CFU per gram for spleen.
Next, a murine model for sepsis was established to evaluate the efficacy of the lead defensin mimetics as antibiotic agents in vivo. […] Mice (n=5) were inoculated intraperitoneally with S. aureus 29213 and treated 1 h and 4 h post-infection with compound BAS00127538 at 2.5 mg/kg intraperitoneally Animals were monitored for survival and blood and spleen samples were collected. Bacterial counts were determined and compared to control treatment with vancomycin/lysostaphin as measures of efficacy (FIG. 6).

[2] = system: Staphylococcus aureus ATCC 29213; test: Antagonization assay of antibacterial activity against S. aureus; type: cell-based; conditions: for Effect of pre-incubation with D-Ala (Diacetyl-Lys-D-Ala-D-Ala) on killing of S. aureus / Effect of pre-incubation with D-Lac (diacetyl-Lys-D-ala-D-Lac) on killing of S. aureus: 1:200 molar ratio, 30 min
Protocol: Antagonization of the antibacterial activity of defensins against Staphylococcus aureus ATCC 29213 was carried out in a 96-well turbidimetric assay essentially as described previously (Erickson et al.). Defensins (50 μM final concentration) were pre-incubated with the following compounds for 30 min at RT: 1) 3-Lipid II at 1:1, 1:2.5 and 1:5 defensin:Lipid II molar ratios; or; 2) DiAcetyl-Lys-D-Alanine-D-Alanine and DiAcetyl-Lys-D-Alanine-D-Lac at 1:200 molar ratios. Additionally, vancomycin (500 μM) was pre-incubated separately with D-Ala and D-Lac at a 1:200 molar ratio. Following incubation, solutions were diluted two-fold in ten steps and bacteria were added. Bacterial cells were exposed to HNP1 or vancomycin for 30 min and to HD-5 for 60 min in all studies. Defensin activity was neutralized by the addition of Mueller Hinton broth. Bacterial growth was monitored for 12 hours and data were analyzed as described (Erickson et al.).
Next, the inventors examined whether the antibacterial activity of HNP-1 could be antagonized by soluble Lipid II as a measure for functional interaction. HNP-1 (50 μM) was pre-incubated with 3-Lipid II at varying molar ratios and killing of S. aureus was determined using the vCC protocol (Erickson et al.) (FIG. 3). […] Survival curves of S. aureus ATCC 29213 exposed to HNP1 (at concentrations varying two-fold from 50 to 1.25 μM). Defensin peptide was pre-incubated with 3-Lipid II at varying molar ratios for 30 min prior to addition of bacteria. Bacteria were subsequently exposed to HNP-1 for 30 min. Each curve is the mean of two separate experiments (±S.D.). Points scored as zero survival could not be plotted.
The D-Ala-D-Ala motif in the pentapeptide is the predominant binding site for vancomycin, a drug of “last resort” for many multi-drug resistant Gram-positive infections. To examine if the interaction of HNP-1 with Lipid II overlaps with the vancomycin binding site, antagonization assays were performed. Diacetyl-Lys-D-Ala-D-Ala (D-Ala) was used as […] and the non-specific peptide diacetyl-Lys-D-ala-D-Lac (D-Lac) as a control. Both vancomycin and HNP-1 were pre-incubated at a 1:200 molar ratio with both compounds for 30 min, similar to experiments with soluble Lipid II (FIG. 3). Subsequently, the inventors determined any antagonizing effects on the killing of S. aureus (FIG. 4). […] In particular, survival curves of S. aureus ATCC 29213 exposed to HNP1 (upper panel) at concentrations varying two-fold from 50 to 1.25 μM or to vancomycin (lower panel) at concentrations varying two-fold from 2 to 0.0125 μM. HNP-1 and vancomycin were pre-incubated with D-ala or D-lac at a 1:200 molar ratio for 30 min prior to addition of bacteria. Bacteria were subsequently exposed to HNP-1 or vancomycin for 30 min. Each curve is the mean of two separate experiments (±S.D.). Points scored as zero survival could not be plotted.

[3] = system: Staphylococcus aureus ATCC 29213; conditions: previously reported (Wei et al., J Biol Chem 285); cited from earlier work
[4] = system: Escherichia coli ATCC 25922; test: 96-well turbidimetric antibacterial killing assay, E. coli; type: cell-based; conditions: E. coli ATCC 25922, 120 min exposure
Protocol: The antibacterial activity of defensin mimetics against Staphylococcus aureus ATCC 29213 and Escherichia coli 25922 was carried out in a 96-well turbidimetric assay essentially as described (Ericksen, B., Wu, Z., Lu, W., and Lehrer, R. I. (2005) Antimicrob Agents Chemother 49, 269-275) with the following modifications: compounds were exposed for 30 min to […] prior to addition of […] in 10 mM phosphate buffer containing 5% DMSO. Bacterial growth was monitored for 12 hours and data were analyzed as described (Ericksen, et al). Determination of MICs was performed by Micromyx, LLC (Kalamazoo, Mich.) according to CLSI standards (CLSI. (2009) Methods for Dilution Antimicrobial Susceptibility Tests for Bacteria That Grow Aerobically; Approved Standard—Eighth Edition.)
The inventors have previously reported on the antibacterial activity of HNP1 and all of its structurally uncompromised single alanine mutants against S. aureus (Wei, G., Pazgier, M., de Leeuw, E., Rajabi, M., Li, J., Zou, G., Jung, G., Yuan, W., Lu, W. Y., Lehrer, R. I., and Lu, W. J Biol Chem 285, 16275-16285). […] If these residues are indeed important for Lipid II binding, one would expect that replacement by alanine will not affect killing of Gram-negative bacteria. […] In particular, FIG. 12 depicts killing of E. coli by HNP-1 Lipid II single alanine mutants. Survival curves of E. coli ATCC 25922 exposed to HNP-1 or HNP-1 single alanine mutants at concentrations varying two-fold from […]. Bacteria were exposed to defensin peptides for 120 min. Each curve is the mean of two separate experiments (±S.D.). Points scored as zero survival could not be plotted.

Molecule	Binding of HNP-1 single alanine mutants to Lipid II compared to wild-type HNP-1 [1]	Efficacy in vivo in a murine model for sepsis (S. aureus ATCC 29213)	further results
HNP-1 R24A mutant: HNP-1 single alanine mutant, Arg24 replaced by alanine	maintained significant binding	–	–
CC[n+]1c(/C=C2C=C(/C=C/N(C)c3ccccc3)CC(C)(C)C/2)sc2ccccc21 [Compound 4090-1978, 2-{[(1E)-5,5-dimethyl-3-[(E)-2-[methyl(phenyl)amino]ethenyl]cyclohex-2-en-1-ylidene]methyl}-3-ethyl-1,3-benzothiazol-3-ium]	–	proven effective	–
CN[C@H](CC(C)C)C(=O)N[C@H]1C(=O)N[C@@H](CC(N)=O)C(=O)N[C@H]2C(=O)N[C@H]3C(=O)N[C@H](C(=O)N[C@H](C(=O)O)c4cc(O)cc(O)c4-c4cc3ccc4O)[C@H](O)c3ccc(c(Cl)c3)Oc3cc2cc(c3O[C@@H]2O[C@H](CO)[C@@H](O)[C@H](O)[C@H]2O[C@H]2C[C@](C)(N)[C@H](O)[C@H](C)O2)Oc2ccc(cc2Cl)[C@H]1O [Vancomycin, vancomycin]	–	–	Effect of pre-incubation with D-Ala (Diacetyl-Lys-D-Ala-D-Ala) on killing of S. aureus [2]: specifically inhibited the killing; Effect of pre-incubation with D-Lac (diacetyl-Lys-D-ala-D-Lac) on killing of S. aureus [2]: not altered; Killing of S. aureus ([2]; without antagonist, 30 min exposure): very effectively
HNP-1: α-defensin Human Neutrophil Peptide 1, chemically synthesized, wild-type	–	–	Bactericidal activity after pre-incubation with 3-Lipid II ([2]; 1:1 molar ratio, 30 min pre-incubation, S. aureus): reduced by one order of magnitude; Effect of pre-incubation with D-Ala (Diacetyl-Lys-D-Ala-D-Ala) on killing of S. aureus [2]: not competitively inhibited; Effect of pre-incubation with D-Lac (diacetyl-Lys-D-ala-D-Lac) on killing of S. aureus [2]: not competitively inhibited
Ile10: HNP-1 single alanine mutant, Ile10 replaced by alanine	did not affect binding	–	–
Leu25: HNP-1 single alanine mutant, Leu25 replaced by alanine	significant reduction of binding	–	Killing of S. aureus by HNP-1 single alanine mutants [3]: severely compromised; Bactericidal activity against E. coli relative to wild-type HNP-1 [4]: comparable to the wild-type peptide
CCCCC[n+]1c(/C=C2\Sc3cc(NC(C)=O)ccc3N2CC)ccc2ccccc21 [Compound 4890-0291, N-[(2Z)-3-ethyl-2-[(1-pentylquinolin-1-ium-2-yl)methylidene]-1,3-benzothiazol-6-yl]acetamide]	–	proven effective	–
CC[n+]1c(/C=C2C=C(/C=C/C(C)=C\N(C)C)CC(C)(C)C/2)sc2ccccc21 [Compound 4090-1979, 2-{[(1E)-3-[(1E,3Z)-4-(dimethylamino)-3-methylbuta-1,3-dien-1-yl]-5,5-dimethylcyclohex-2-en-1-ylidene]methyl}-3-ethyl-1,3-benzothiazol-3-ium]	–	proven effective	–
CN(C)c1ccc(/C=C/c2cc(C(C)(C)C)[o+]c(C(C)(C)C)c2)cc1 [Compound 1493-0289, 2,6-di-tert-butyl-4-[(E)-2-[4-(dimethylamino)phenyl]ethenyl]-1$1^4-pyran-1-ylium]	–	proven effective	–
Arg5: HNP-1 single alanine mutant, Arg5 replaced by alanine	did not affect binding	–	–
c1ccc(-c2nc(N(c3ccccc3)c3ccccc3)s[n+]2-c2ccccc2)cc1 [Compound 1492-0330, 5-(diphenylamino)-2,3-diphenyl-1,2$1^5,4-thiadiazol-2-ylium]	–	proven effective	–
Gly23: HNP-1 single alanine mutant, Gly23 replaced by alanine	did not affect binding	–	–
Oc1ccccc1Oc1c(F)c(F)c(-c2c(F)c(F)c(Oc3ccccc3O)c(F)c2F)c(F)c1F [Compound 1611-0203, 2-{2,3,5,6-tetrafluoro-4-[2,3,5,6-tetrafluoro-4-(2-hydroxyphenoxy)phenyl]phenoxy}phenol]	–	proven effective	–

Reference: patent publication US9351963B2, “Defensin-like molecules as novel antimicrobial agents” (UNIVERSITY OF MARYLAND, BALTIMORE, priority 2010, dated 2016)
